Assay results published in patent US20170014524A1, “AURISTATIN-ANTIBODY CONJUGATES AND USES THEREOF” (The California Institute for Biomedical Research, priority 2015, published 2017).
Where a SMILES comes first, the peptide text is derived from it. [ ]: non-standard residue; d: D form. The star is where a group is joined. Dolaproine = CO[C@@H]([C@@H]1CCCN1)[C@@H](C)C(=O)O; Dil = CC[C@H](C)[C@H](NC)[C@@H](CC(=O)O)OC; Doe = c1ccc(C[C@H](N*)c2nccs2)cc1; NMeV = CN[C@H](C(=O)O)C(C)C

Assays:
Format in all cases: cell-based
Settings in all cases: 600 nM to 30 pM, 4 days at 37° C.
[1] = tested on: Ramos (CXCR4+) cells; test: Cytotoxicity (CellTiter-Glo cell viability, 4 days) in Ramos cells
Description: (§1) Cell viabilities were measured by addition of CellTiter-Glo (Promega) and the luminescent signals were read by EnVision plate reader.
(§2) The following illustrative examples are representative of embodiments of the compositions and methods described herein and are not meant to be limiting in any way. All cell lines were purchased from ATCC unless otherwise stated. Ramos, Jurkat, OPM-2 cells were cultured in RPMI with 10% FBS and 100 U/mL Penicillin Streptomycin. MDA-MB-231 cells were cultured in DMEM (high glucose) with 10% FBS, 1 mM sodium pyruvate, and 100 U/mL Penicillin Streptomycin. SKBR-3 cells were cultured in DMEM with 10% FBS and 1x Antibiotic-Antimycotic (100 U/mL Penicillin Streptomycin, 0.25 μg/mL Fungizone). […]
(§3) Ramos (CXCR4+), Jurkat (CXCR4+), and MDA-MB-231 (CXCR4−) cells were treated with either small molecule drugs, anti-CXCR4 (SEQ ID NOS: 3, 4), or anti-CXCR4-auristatin conjugates with concentrations ranging from 600 nM to 30 pM for 4 days at 37° C. Cell viabilities were measured by addition of CellTiter-Glo (Promega) and the luminescent signals were read by EnVision plate reader.
(§4) Briefly, 1000 cells/well were seeded in a 384-well plate (45 uL/well with their corresponding media) and incubated at 37° C. overnight. […] Plates were shaken and incubated for at least 10 min before the generated luminescent signals were read using PerkinElmer EnVision Multilabel Reader.

[2] = tested on: MDA-MB-231 (CXCR4−) cells; test: Cytotoxicity (CellTiter-Glo cell viability, 4 days) in MDA-MB-231 cells
Description: as §1, §2, §3, §4

[3] = tested on: Jurkat (CXCR4+) cells; test: Cytotoxicity (CellTiter-Glo cell viability, 4 days) in Jurkat cells
Description: as §1, §2, §3, §4

SMILES: CC[C@H](C)[C@@H]([C@@H](CC(=O)N1CCC[C@H]1[C@H](OC)[C@@H](C)C(=O)N[C@@H](Cc1ccccc1)c1nccs1)OC)N(C)C(=O)[C@@H](NC(=O)[C@@H](NC)C(C)C)C(C)C [MMAD, monomethyl auristatin D] (H-[NMeV]V[Dil][Dolaproine]-Doe)
- IC50 [1]: 1.4 nM
- IC50 [2]: 5.2 nM
- IC50 [3]: 2.8 nM
